Assay results as given in US11084814B2, “Pyrido[3, 4-d]pyrimidine derivative and pharmaceutically acceptable salt thereof” (Teijin Pharma Limited, priority 2016, dated 2021).
pIC50: −log10 of the molar value.

How the values were obtained:
[1] = biological target: T1, CDK4/cyclin D3 (Homo sapiens, UniProt P11802); assay: Human CDK4/cyclin D3 inhibitory activity (QS S Assist CDK4/Cyclin D3_FP Kit, IMAP fluorescent polarization); format: biochemical; conditions: read-out: CDK4 Activity symbol
T1 construct: purchased Carna Biosciences, Inc. QS S Assist CDK4/Cyclin D3_FP Kit
T1 sequence (P11802 whole entry): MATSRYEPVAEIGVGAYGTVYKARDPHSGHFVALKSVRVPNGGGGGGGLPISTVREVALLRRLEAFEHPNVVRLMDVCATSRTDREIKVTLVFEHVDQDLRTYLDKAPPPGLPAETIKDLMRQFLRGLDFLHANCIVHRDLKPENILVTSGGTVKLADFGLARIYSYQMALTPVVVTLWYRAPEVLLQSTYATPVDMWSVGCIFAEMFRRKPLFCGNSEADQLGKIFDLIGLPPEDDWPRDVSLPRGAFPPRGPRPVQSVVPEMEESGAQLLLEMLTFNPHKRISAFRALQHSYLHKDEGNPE
T1 sequence (P30281 whole entry partner): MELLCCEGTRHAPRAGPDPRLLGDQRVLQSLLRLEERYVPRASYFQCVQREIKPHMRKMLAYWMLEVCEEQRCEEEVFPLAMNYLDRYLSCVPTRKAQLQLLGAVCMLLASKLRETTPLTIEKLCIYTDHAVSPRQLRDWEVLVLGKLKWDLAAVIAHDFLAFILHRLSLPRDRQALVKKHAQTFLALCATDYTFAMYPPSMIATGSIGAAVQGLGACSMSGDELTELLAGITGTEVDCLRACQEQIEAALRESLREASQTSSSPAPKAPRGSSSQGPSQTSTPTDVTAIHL
Description: Human CDK4/Cyclin D3 Inhibitory Activity
(§1) Each compound was analyzed for CDK4/cyclin D3 inhibitory activity with an assay kit (QS S Assist CDK4/Cyclin D3_FP Kit, available from Carna Biosciences, Inc.). This assay kit determines kinase activity on the basis of the IMAP technology by Molecular Devices. Specifically, the kinase activity is determined through quantification of a variation in fluorescent polarization caused by binding of a kinase-phosphorylated fluorescent substance to an IMAP-binding reagent.
Each solution was prepared with the 10× assay buffer attached to the kit or a separately prepared assay buffer having the same composition as the assay buffer attached to the kit. An assay buffer was prepared by 10-fold dilution of the 10× assay buffer with distilled water. The assay buffer contains 20 mM HEPES (pH 7.4), 0.01% Tween20, and 2 mM dithiothreitol. A test compound solution was prepared by dilution of the test compound with dimethyl sulfoxide (DMSO) to a concentration 100 times higher than the final concentration and then 25-fold dilution with the assay buffer to a concentration four times higher than the final concentration. An ATP/substrate/Metal solution was prepared by five-fold dilution of the 5×ATP/substrate/Metal solution attached to the kit with the assay buffer. An enzyme solution was prepared by dilution of the CDK4/cyclin D3 attached to the kit with the assay buffer to a concentration twice higher than the final concentration (final concentration of CDK4/cyclin D3: 12.5 to 25 ng/well). A detection reagent was prepared by five-fold dilution of each of 5×IMAP-binding buffer A and 5×IMAP-binding buffer B with distilled water, mixing of IMAP-binding buffer A with IMAP-binding buffer B at a ratio of 85:15, and 400-fold dilution of the IMAP-binding reagent with the mixed buffer.
(§2) The test compound solution (5 μL/well) and the ATP/substrate/Metal solution (5 μL/well) were added to a 384-well plate, and the enzyme solution or the assay buffer (10 μL/well) was added to the plate (total amount of the reaction mixture: 20 μL/well) for initiation of enzymatic reaction. […] The reaction was performed at room temperature for 45 minutes, and the detection reagent (60 μL/well) was then added to the plate, followed by further reaction for 30 minutes at room temperature under light shielding conditions. Subsequently, fluorescent polarization was determined with a microplate reader at an excitation wavelength of 485 nm and an emission wavelength of 535 nm.
(§3) The percent inhibition of enzyme activity was calculated for each test compound (note: enzyme activity=100% in the case of addition of the enzyme solution and addition of DMSO instead of the test compound solution, whereas enzyme activity […] in the case of addition of the assay buffer instead of the enzyme solution, and addition of DMSO instead of the test compound solution). The percent inhibition of enzyme activity was fitted to a dose-response curve, to determine a 50% inhibitory concentration against CDK4/cyclin D3.
In each table, “+++” corresponds to IC50<10 nM. “++” 10 nM […] IC50<100 nM, and “+” 100 nM≤IC50.

[2] = biological target: T2, CDK2/cyclin A2 (Homo sapiens, UniProt P24941); assay: Human CDK2/cyclin A2 inhibitory activity (QS S Assist CDK2/Cyclin A2_FP Kit, IMAP fluorescent polarization); format: biochemical; conditions: read-out: CDK2 Activity symbol
T2 construct: purchased Carna Biosciences, Inc. QS S Assist CDK2/Cyclin A2_FP Kit
Description: Human CDK2/Cyclin A2 Inhibitory Activity
as §1, with “CDK2/cyclin A2” for “CDK4/cyclin D3”, “CDK2/Cyclin A2_FP” for “CDK4/Cyclin D3_FP”
An assay buffer was prepared by 10-fold dilution of the 10× assay buffer attached to the kit with distilled water, and each solution was prepared with the assay buffer. The assay buffer contained 20 mM HEPES (pH 7.4), 0.01% Tween 20, and 2 mM dithiothreitol. A test compound solution was prepared by dilution of the test compound with dimethyl sulfoxide (DMSO) to a concentration 100 times higher than the final concentration and then 25-fold dilution with the assay buffer to a concentration four times higher than the final concentration. An ATP/substrate/Metal solution was prepared by five-fold dilution of the 5×ATP/substrate/Metal solution attached to the kit with the assay buffer. An enzyme solution was prepared by dilution of the CDK2/cyclin A2 attached to the kit with the assay buffer to a concentration twice higher than the final concentration (final concentration of CDK2/cyclin A2: 2.5 ng/well). A detection reagent was prepared by five-fold dilution of 5×IMAP-binding buffer A with distilled water and 400-fold dilution of the IMAP-binding reagent with the diluted buffer.
as §2, with “60” for “45”
as §3, with “enzyme solution” for “enzyme solution,”, “against CDK2/cyclin A2.” for “against CDK4/cyclin D3.”
In each table, “+++” corresponds to IC50<10 nM, “++” 10 nM≤IC50<100 nM, and “+” 100 nM≤IC50.

Row | Compound | pIC50 [1] | pIC50 [2]
1 | C[C@@H](O)c1cc2cnc(Nc3ccc(O[C@H]4CCCN(CCO)C4)cn3)nc2c(N2CCC[C@H](F)C2)n1 [Compound 255] | > 8.00 | ≤ 7.00
2 | C[C@@H](O)c1cc2cnc(Nc3ccc(C(=O)N4CCOCC4)cn3)nc2c(N2CCCCC2)n1 [Compound 310] | > 8.00 | ≤ 7.00
3 | OCCc1cc2cnc(Nc3ccc(N4CCNCC4)cn3)nc2c(N2CCOCC2)n1 [Compound 38] | ≤ 7.00 | ≤ 7.00
4 | C[C@@H](O)c1cc2cnc(Nc3ccc(C(=O)N4CCC(O)CC4)cn3)nc2c(N2CCCCC2)n1 [Compound 311] | > 8.00 | ≤ 7.00
5 | OCCc1cc2cnc(Nc3ccc4c(n3)CCNC4)nc2c(N2CCCCC2)n1 [Compound 95] | 7.00 to 8.00 | ≤ 7.00
6 | C[C@@H](O)c1cc2cnc(Nc3ccc4c(n3)CCN(C(=O)CN3CC(F)C3)C4)nc2c(N2CCCCC2)n1 [Compound 269] | > 8.00 | ≤ 7.00
7 | C[C@@H](O)c1cc2cnc(Nc3ccc4c(n3)CCN(CC#N)C4)nc2c(N2CCCCC2)n1 [Compound 196] | 7.00 to 8.00 | ≤ 7.00
8 | C[C@@H](O)c1cc2cnc(Nc3ccc4c(n3)CCN(CCO)C4)nc2c(N2CCCCC2)n1 [Compound 111] | > 8.00 | ≤ 7.00
9 | C[C@@H](O)c1cc2cnc(Nc3ccc(O[C@H]4CCCN(CCO)C4)cn3)nc2c(N2C3CCC2CC3)n1 [Compound 253] | > 8.00 | ≤ 7.00
10 | C[C@@H](O)c1cc2cnc(Nc3ccc(N4CCN(CCS(C)(=O)=O)CC4)nn3)nc2c(N2CCCCC2)n1 [Compound 114, (R)-1-(2-((6-(4-(2-(methylsulfonyl)ethyl)piperazin-1-yl)pyridazin-3-yl)amino)-8-(piperidin-1-yl)pyrido[3,4-d]pyrimidin-6-yl)ethanol] | > 8.00 | ≤ 7.00
11 | C[C@@H](O)c1cc2cnc(Nc3ccc4c(n3)CCN(C(=O)CN3CC(F)C3)C4)nc2c(N2C3CCC2CC3)n1 [Compound 235] | > 8.00 | ≤ 7.00
12 | Cc1nc(Nc2ncc3cc([C@@H](C)O)nc(N4C5CCC4CC5)c3n2)ccc1N1CCN(C)CC1 [Compound 185] | > 8.00 | ≤ 7.00
13 | C[C@@H](O)c1cc2cnc(Nc3ccc4c(n3)CCN(C3COC3)C4)nc2c(N2CCCCC2)n1 [Compound 161] | > 8.00 | ≤ 7.00
14 | C[C@@H](O)c1cc2cnc(Nc3ccc(C(=O)N(C)CCN(C)C)cn3)nc2c(N2CCCCC2)n1 [Compound 316] | > 8.00 | ≤ 7.00
15 | CC(O)c1cc2cnc(Nc3ccc(CN4CCN(CCO)CC4)cn3)nc2c(N2C3CCCC2CC3)n1 (stereo not drawn) [Compound 105] | > 8.00 | ≤ 7.00
16 | C[C@@H](O)c1cc2cnc(Nc3ccc(CN4CCN(C)[C@@H](C)C4)cn3)nc2c(N2C3CCC2CC3)n1 [Compound 189] | > 8.00 | ≤ 7.00
17 | C[C@@H](O)Cc1cc2cnc(Nc3ccc(N4CCNCC4=O)cn3)nc2c(N2CCCCC2)n1 [Compound 169] | 7.00 to 8.00 | ≤ 7.00
18 | Cc1ccccc1-c1nc(C(F)F)cc2cnc(Nc3ccc(N4CCNCC4)cn3)nc12 [Compound 30] | > 8.00 | ≤ 7.00
19 | C[C@@H](O)c1cc2cnc(Nc3ccc4c(n3)CCN(C(=O)Cn3cccn3)C4)nc2c(N2CCCCC2)n1 [Compound 331] | 7.00 to 8.00 | ≤ 7.00
20 | OCc1cc2cnc(Nc3ccc(CN4CCNCC4)cn3)nc2c(N2CCCCC2)n1 [Compound 108] | > 8.00 | ≤ 7.00
21 | CO[C@H](C)c1cc2cnc(Nc3ccc(N4CCNCC4)nn3)nc2c(N2CCC(F)CC2)n1 [Compound 126] | > 8.00 | ≤ 7.00
22 | C[C@@H](O)c1cc2cnc(Nc3ccc(N4CCN(C)CC4=O)cn3)nc2c(N2CCOCC2)n1 [Compound 74] | 7.00 to 8.00 | ≤ 7.00
23 | C[C@H](CO)c1cc2cnc(Nc3ccc(N4CCNCC4=O)cn3)nc2c(N2CCCCC2)n1 [Compound 192] | 7.00 to 8.00 | ≤ 7.00
24 | C[C@@H](O)c1cc2cnc(Nc3ccc(N4CCN(C)CC4)nn3)nc2c(N2CCCCC2)n1 [Compound 123, (R)-1-(2-((6-(4-methylpiperazin-1-yl)pyridazin-3-yl)amino)-8-(piperidin-1-yl)pyrido[3,4-d]pyrimidin-6-yl)ethanol] | > 8.00 | ≤ 7.00

Now from value to molecule:

Row | pIC50 [1] | pIC50 [2] | Compound
25 | > 8.00 | ≤ 7.00 | C[C@@H]1CCN(c2nc([C@@H](C)O)cc3cnc(Nc4ccc(CN5CCN(C)CC5)cn4)nc23)C1 [Compound 138]
26 | 7.00 to 8.00 | ≤ 7.00 | C[C@@H](O)c1cc2cnc(Nc3ccc(CN4CCN(CCO)CC4)cn3)nc2c(N2CCN(C)CC2)n1 [Compound 77]
27 | > 8.00 | ≤ 7.00 | CC1CCC(C)N1c1nc([C@@H](C)O)cc2cnc(Nc3ccc(CN4CCN(C)CC4)cn3)nc12 (stereo partly drawn) [Compound 140]
28 | > 8.00 | ≤ 7.00 | C[C@@H](O)c1cc2cnc(Nc3ccc(CN4CCC(O)CC4)cn3)nc2c(N2CCCCC2)n1 [Compound 65]
29 | > 8.00 | ≤ 7.00 | CCN1CCN(C(=O)c2ccc(Nc3ncc4cc([C@@H](C)O)nc(N5CCCCC5)c4n3)nc2)CC1 [Compound 317]
30 | > 8.00 | ≤ 7.00 | C[C@@H](O)c1cc2cnc(Nc3ccc(CN4CCN(CCO)CC4)cn3)nc2c(N2CCC(F)CC2)n1 [Compound 78]
31 | > 8.00 | ≤ 7.00 | CO[C@H](C)c1cc2cnc(Nc3ccc(CN4CCNCC4)cn3)nc2c(N2CCCCC2)n1 [Compound 119]
32 | > 8.00 | ≤ 7.00 | CC(O)c1cc2cnc(Nc3ccc(CN4CCN(CCO)CC4)cn3)nc2c(N2CC(C)C(C)C2)n1 (stereo not drawn) [Compound 113]
33 | > 8.00 | ≤ 7.00 | C[C@@H](CO)c1cc2cnc(Nc3ccc(CN4CCN(CCO)CC4)cn3)nc2c(N2CCCCC2)n1 [Compound 167]
34 | > 8.00 | ≤ 7.00 | C[C@@H](O)c1cc2cnc(Nc3ccc(CN4CCN(CCO)CC4)cn3)nc2c(N2CC3(CCC3)C2)n1 [Compound 57]
35 | > 8.00 | ≤ 7.00 | C[C@@H](O)c1cc2cnc(Nc3ccc(OC4CCN(CCO)CC4)cn3)nc2c(N2CCC[C@H](F)C2)n1 [Compound 222]
36 | > 8.00 | ≤ 7.00 | C[C@@H](O)c1cc2cnc(Nc3ccc(CN4CCN(C)CC4)cn3)nc2c(N2CCC(C)(C)C2)n1 [Compound 142]
